Measurements as given in US6608082B1, “Treatment of erectile dysfunction using isoquinoline compound melanocortin receptor ligands” (Lion Bioscience AG, priority 1998, dated 2003).
Like-named read-outs stand apart in the source and are kept apart here.

Target: T1, MCR-1 (Homo sapiens, UniProt Q01726)
T1 construct: expressed in transfected cells; host or cells: HEK 293
Experiment: Melanocortin receptor binding assay, competition with 125I-HP 467, HEK 293 cells expressing hMCR-1
Conditions: for IC50: read-out: MC-1 IC50; for % Disp. MC-1 10 μM: displacement of 125I-HP 467 at 10 μM isoquinoline compound; for % Disp. of 125I-HP 467 (first of duplicate) / % Disp. of 125I-HP 467 (second of duplicate): 10 μM isoquinoline compound; for % Disp. of 125I-HP 467 (first of duplicate): HEK 293 cells expressing MCR-1, duplicate 1; for % Disp. of 125I-HP 467 (second of duplicate): HEK 293 cells expressing MCR-1, duplicate 2
Procedure: All cell culture media and reagents were obtained from GibcoBRL (Gaithersburg Md.), except for COSMIC CALF SERUM (HyClone; Logan Utah).
Cells were suspended in PBS, 10% COSMIC CALF SERUM and 1 mM CaCl2. Cell suspensions were prepared at a density of 2×10^4 cells/ml for HEK 293 cells expressing hMCR-3, hMCR-4 or hMCR-5, and 1×10^5 cells/ml for HEK 293 cells expressing hMCR-1. Suspensions were placed in a water bath and allowed to warm to 37° C. for 1 hr.
Binding assays were performed in a total volume of 250 μl for HEK 293 cells. […] To each tube was added 4×10^3 HEK 293 cells expressing hMCR-3, hMCR-4 or hMCR-5, or 2×10^4 cells expressing hMCR-1. Assays were incubated for 2.5 hr at 37° C.
GF/B filter plates were prepared by soaking for at least one hour in 5 mg/ml BSA and 10 mM CaCl2. Assays were filtered using a Brandel 96-well cell harvester (Brandel Inc.; Gaithersburg, Md.). The filters were washed four times with cold 50 mM Tris, pH 7.4, the filter plates were dehydrated for 2 hr and 35 μl of MICROSCINT was added to each well. Filter plates were counted using a Packard Topcount (Packard Instrument Co.) and data analyzed using GraphPad PRISM v2.0 (GraphPad Software Inc.; San Diego Calif.) and Microsoft EXCEL v5.0a (Microsoft Corp.; Redmond Wash.).
To assay isoquinoline compounds, binding assays were performed in duplicate in a 96 well format. […] A 0.2 ml aliquot of suspended cells was added to each well to give the cell numbers indicate above, and the cells were incubated at 37° C. for 2.5 hr. Cells were harvested on GF/B filter plates as described above and counted.

[1] = competition with 125I-HP 467, HEK 293 cells expressing MCR-1
[2] = inhibition of binding of 125I-HP 467, HEK 293 cells expressing MCR-1

T1 sequence (Q01726 whole entry): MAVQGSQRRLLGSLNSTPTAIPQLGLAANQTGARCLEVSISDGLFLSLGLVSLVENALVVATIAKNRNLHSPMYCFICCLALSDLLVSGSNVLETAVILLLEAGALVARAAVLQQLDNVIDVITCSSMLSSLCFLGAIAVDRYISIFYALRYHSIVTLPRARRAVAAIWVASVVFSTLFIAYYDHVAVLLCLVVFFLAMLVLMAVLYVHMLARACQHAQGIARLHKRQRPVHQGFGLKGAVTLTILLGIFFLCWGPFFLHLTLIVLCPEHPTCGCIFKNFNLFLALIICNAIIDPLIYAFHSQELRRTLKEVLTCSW

CCNC(CN)CCCCN1Cc2ccccc2C(CNC2CCCCC2)C1c1ccc(-c2ccccc2)cc1 (stereo not shown) [TRG 2411-14]
IC50 [1]: 0.46 µM

NCCN1Cc2ccccc2C(CNC2CCCCC2)C1c1ccc(Br)o1 (stereo not shown) [TRG 2405-89]
% Disp. MC-1 10 μM (first of duplicate): 21.5% | % Disp. MC-1 10 μM (second of duplicate): 31.2%

CNC(CN)CN1Cc2ccccc2C(CNC2CCCCC2)C1c1ccc(F)c(F)c1 (stereo not shown) [TRG 2405-117]
% Disp. MC-1 10 μM (first of duplicate): 40.9% | % Disp. MC-1 10 μM (second of duplicate): 55.7%

CCNc1ccc(C2C(CNCCc3ccccc3)c3ccccc3CN2CCCCC(CN)NCCN)cc1 (stereo not shown) [TRG 2411-48]
IC50 [1]: 0.3 µM

CCNc1ccc(C2C(CN)c3ccccc3CN2CCCCC(CN)NCCc2ccc3ccccc3c2)cc1 (stereo not shown) [TRG 2411-69]
IC50 [1]: 0.37 µM

NCC(CCCN1Cc2ccccc2C(CN)C1c1ccc(-c2ccccc2)cc1)NCCc1ccccc1 (stereo not shown) [TRG 2411-139]
IC50 [1]: 1.46 µM

CCNc1ccc(C2C(CNCCc3ccccc3)c3ccccc3CN2CCCCC(CN)NCCNC)cc1 (stereo not shown) [TRG 2413-4]
IC50 [2]: 0.34 µM

CNC(CN)CCCCN1Cc2ccccc2C(CNC2CCCCC2)C1c1ccc(C)s1 (stereo not shown) [TRG 2405-258]
% Disp. of 125I-HP 467 (first of duplicate): 80.7% | % Disp. of 125I-HP 467 (second of duplicate): 81.9%

NCCN1Cc2ccccc2C(CNC2CCCCC2)C1c1ccccc1F (stereo not shown) [TRG 2405-16]
% Disp. MC-1 10 μM (first of duplicate): 26.8% | % Disp. MC-1 10 μM (second of duplicate): 40.3%

NC[C@@H](N)CCCN1Cc2ccccc2C(CNCCc2ccccc2)C1c1ccc(-c2ccccc2)cc1 (stereo partly shown) [TRG 2411-113]
IC50 [1]: 0.5 µM

CCCCNc1ccc(C2C(CNC3CCCCC3)c3ccccc3CN2CCCC(CN)NCCC2CCCCC2)cc1 (stereo not shown) [TRG 2411-214]
IC50 [2]: 0.08 µM

CNC(CN)CCCCN1Cc2ccccc2C(CNC2CCCCC2)C1c1nccs1 (stereo not shown) [TRG 2405-270]
% Disp. of 125I-HP 467 (first of duplicate): 41.1% | % Disp. of 125I-HP 467 (second of duplicate): 33.7%

CNC(C)CNC(CN)CCCN1Cc2ccccc2C(CNC2CCCCC2)C1c1ccc(-c2ccccc2)cc1 (stereo not shown) [TRG 2411-128]
IC50 [1]: 1.57 µM

CNC(CN)CN1Cc2ccccc2C(CNC2CCCCC2)C1c1cccc([N+](=O)[O-])c1 (stereo not shown) [TRG 2405-139]
% Disp. MC-1 10 μM (first of duplicate): 40.3% | % Disp. MC-1 10 μM (second of duplicate): 45.5%

CCCCNc1ccc(C2C(CNC3CCCCC3)c3ccccc3CN2CCCCC(CN)NCc2ccccc2)cc1 (stereo not shown) [TRG 2411-93]
IC50 [1]: 0.13 µM

CCNc1ccc(C2C(CN)c3ccccc3CN2CCCCC(N)CN)cc1 (stereo not shown) [TRG 2411-59]
IC50 [1]: 0.37 µM

NCC(CCCCN1Cc2ccccc2C(CNCCc2ccc(Oc3ccccc3)cc2)C1c1cc(C(F)(F)F)cc(C(F)(F)F)c1)NCc1ccc(-c2ccccc2)cc1 (stereo not shown) [TRG 2421-30]
IC50 [2]: 36.4 µM

NCCN1Cc2ccccc2C(CNC2CCCCC2)C1c1cccc(F)c1 (stereo not shown) [TRG 2405-41]
% Disp. MC-1 10 μM (first of duplicate): 19.6% | % Disp. MC-1 10 μM (second of duplicate): 19.8%

CCNc1ccc(C2C(CN)c3ccccc3CN2CCCCC(CN)NCc2ccc(OC)cc2)cc1 (stereo not shown) [TRG 2411-68]
IC50 [1]: 0.12 µM

CNC(CN)CCCCN1Cc2ccccc2C(CNC2CCCCC2)C1c1cccc(C(F)(F)F)c1 (stereo not shown) [TRG 2405-215]
% Disp. of 125I-HP 467 (first of duplicate): 75.9% | % Disp. of 125I-HP 467 (second of duplicate): 70.8%

CNC(CN)CCCCN1Cc2ccccc2C(CNC2CCCCC2)C1c1cccc(Br)c1 (stereo not shown) [TRG 2405-217]
% Disp. of 125I-HP 467 (first of duplicate): 74.5% | % Disp. of 125I-HP 467 (second of duplicate): 68.8%

CCNC(CN)CCCN1Cc2ccccc2C(CNC2CCCCC2)C1c1ccc(-c2ccccc2)cc1 (stereo not shown) [TRG 2411-127]
IC50 [1]: 1.48 µM

CNC(CN)CCCCN1Cc2ccccc2C(CNC2CCCCC2)C1c1ccncc1 (stereo not shown) [TRG 2405-254]
% Disp. of 125I-HP 467 (first of duplicate): 24.9% | % Disp. of 125I-HP 467 (second of duplicate): 29.1%

CNC(CN)CCCCN1Cc2ccccc2C(CNC2CCCCC2)C1c1ccccc1Br (stereo not shown) [TRG 2405-192]
% Disp. of 125I-HP 467 (first of duplicate): 73.8% | % Disp. of 125I-HP 467 (second of duplicate): 50.9%

Cc1cccc(C2C(CNC3CCCCC3)c3ccccc3CN2CCN)n1 (stereo not shown) [TRG 2405-81]
% Disp. MC-1 10 μM (first of duplicate): 0% | % Disp. MC-1 10 μM (second of duplicate): 43.1%
